# Assay results published in patent US20200246365A1, “COMPOUNDS, PHARMACEUTICAL COMPOSITIONS AND USE THEREOF AS INHIBITORS OF RAN GTPASE” (THE ROYAL INSTITUTION FOR THE ADVANCEMENT OF LEARNING / …, priority 2017, published 2020).
# Columns and labels:
# [1] = Tolerance test in NRG mice; assay type: in vivo; settings: daily i.p. 75 mg/kg for 15 days
# Protocol: For the tolerance test, M36 and QR20 compounds were dissolved in DMSO 10%, Kolliphor® EL 10%, PEG-400 20% and PBS 60% and injected intraperitoneally into 6-week-old female Nod Rag Gamma (NRG) mice (The Jackson laboratory, Bar Harbor, Me.) daily at 75 mg/kg. During this study, mice (n=3) were monitored for survival and weight loss/gain.
# Ran-GTP [2] = target: T1, Ran-GTP (Homo sapiens, UniProt P62826); assay: Ran-GTP immunofluorescence in TOV112D cells; assay type: cell-based; settings: TOV112D cells vs DMSO-treated
# Protocol: M36 and R28-treated and control TOV112D cells grown on coverslips were washed with 1×PBS, fixed in 4% paraformaldehyde and permeabilized with 0.25% Triton X-100 (Sigma-Aldrich Inc.). After blocking (4% BSA and 4% FBS in PBS), coverslips were incubated with the monoclonal anti-RanGTP antibody (26915, NewEastBioscences) diluted 1:100 in blocking buffer for 2 hours at room temperature. Subsequently, samples were incubated with Cy-5 secondary antibody (1:500, Life Technologies Inc.) for 1 hour and coverslips were mounted onto slides using Prolong® Gold anti-fade reagent with DAPI (Life Technologies Inc.). Samples were visualized under a Zeiss microscope (Zeiss observer Z1) with a 20× objective.
# RhoA = RhoA (Homo sapiens, UniProt P61586); assay: RhoA activation ELISA in TOV112D cells; assay type: cell-based; settings: vs DMSO
# RAD51/Geminin foci (HR) = assay: RAD51/Geminin foci after gamma-irradiation in TOV112D cells; assay type: cell-based, human
# 53BP1 = 53BP1 immunofluorescence after gamma-irradiation in TOV112D cells; assay type: cell-based, human
# TOV112D cells = assay: Clonogenic survival assay, TOV112D; assay type: cell-based, human
# Protocol: (§1) The human EOC cell lines used (TOV81D, TOV112D, OV90, TOV21G, OV866(2), TOV1369(R), OV1369(R2), TOV1946, OV1946, TOV2295(R), OV4485) were derived in our laboratory from patients' tumors (TOV) or ascites (OV). All EOC cell lines were maintained in a low oxygen condition of 7% O2 and 5% CO2 and grown in OSE medium (Wisent, Montreal, QC) supplemented with 10% FBS (Wisent), 0.5 μg/mL amphotericin B (Wisent) and 50 μg/mL gentamicin (Life Technologies Inc., Burlington, ON). The human retinal epithelial cell line ARPE-19 was purchased from American Type Culture Collection (ATCC, Manassas, Va.) and maintained in DMEM-F12 (Wisent) supplemented with 10% FBS (Wisent), 0.5 μg/mL amphotericin B (Wisent) and 50 μg/mL gentamicin (Life Technologies Inc.).
# (§2) Clonogenic assays were performed as previously described. Colonies were counted under a stereo microscope and reported as percent of control. IC50 values were determined using Graph Pad Prism 5 software (GraphPad Software Inc., San Diego, Calif.). Each experiment was performed in duplicate and repeated three times. Sensitivity of the cell lines to small molecules inhibitors of Ran was assessed using a concentration range of 0-50 μM.
# (§3) Small molecules inhibitors of Ran were dissolved in 100% dimethyl sulfoxide (DMSO) and then further diluted in complete culture media for in vitro experiments. Drugs were added 24 hours after seeding.
# [3] = system: prostate cancer cell lines (LNCaP, 22RV1, PC3, DU145); assay: Cell proliferation, prostate cancer cell lines; assay type: cell-based
# γH2AX foci = γH2AX foci immunostaining in TOV112D cells; assay type: cell-based, human
# [4] = Pharmacokinetics in CD1 mice; assay type: in vivo
# Protocol: For the pharmacokinetic studies, 6-week-old female CD1 mice (Charles River laboratories, Senneville, QC, Canada) received a single intravenous or intraperitoneal injection of M36 or QR20 (50 mg/kg), dissolved in DMSO 10%, Kolliphor® EL 10%, PEG-400 20% and PBS 60% (QR20 was also dissolved in DMSO 10%, PBS 90%). For each time point (15 minutes, 30 minutes, […], 1 hour, 2 hours and 6 hours), 3 mice were sacrificed and blood was collected by cardiac puncture. Thereafter, the plasma level of each compound was measured by mass spectrometry.
# cleaved PARP = assay: Apoptosis by PARP cleavage (Western blot); assay type: cell-based, human; settings: 96 hours after treatment
# Protocol: Cells were lysed with RIPA buffer containing protease inhibitors. Whole cell lysates were run through a Bradford assay (Thermo Fisher Scientific) for protein quantification. Around 25-50 μg of proteins were separated onto 12.5% SDS-PAGE and transferred onto nitrocellulose membranes. The resultant blots were probed with Ran (1:10000, sc-271376 Santa Cruz Biotechnology, Dallas, Tex.), cleaved PARP (1:1000, #9541, Cell Signaling Technology Inc., Danvers, Mass.), GAPDH (1:2500, #2118, Cell Signaling Technology Inc.) or beta-actin (1:50000, ab6276, Abcam Inc., Toronto, ON, Canada) primary antibodies overnight at 4° C. then with peroxidase-conjugated secondary antibodies for 2 hours at room temperature. Proteins were detected using enhanced chemiluminescence (Thermo Fisher Scientific).
# [5] = system: TOV112D cells overexpressing DA Ran; assay: Cell survival of TOV112D cells transfected with Ran WT or dominant active mutant; assay type: cell-based, human
# [6] = target: T2, recombinant human Ran protein (Homo sapiens, UniProt P62826); assay: Surface Plasmon Resonance (SPR) binding to immobilized Ran; settings: different compound concentrations, reached saturation
# T2 construct: Recombinant Ran protein was purchased from Sigma-Aldrich Inc. (R3152)
# Protocol: SPR experiments were carried out using the Biacore 3000 system. Recombinant Ran protein was purchased from Sigma-Aldrich Inc. (R3152). The running buffer contained PBS, pH7.4, 1 mM GDP, 2 mM MgCl2 and 0.2% DMSO. The regeneration buffer contained 10 mM glycine (pH 2.5). Ran-GDP protein was immobilized onto a CM5 chip; samples of compounds in running buffer were injected at 30 μL/min for 10 minutes contact time followed by 5 minutes regeneration. Kd was calculated using the GraphPad Prism 5 software.
# Cdc42 = Cdc42 (Homo sapiens, UniProt P60953); assay: Cdc42 activation ELISA in TOV112D cells; assay type: cell-based; settings: vs DMSO
# ARPE-19 cells = assay: Clonogenic survival assay, ARPE-19; assay type: cell-based, human
# Protocol: as §1, §2, §3
# [7] = system: other aneuploid EOC cells; assay: IncuCyte cell proliferation assay, other aneuploid EOC cell lines; assay type: cell-based, human; settings: 40 μM
# Protocol: as §1
# Cells (2,000 cells/well) were plated in a 96-well plate. The next day, compounds were added at the indicated concentrations. Following treatment, cell confluence was imaged by phase contrast using the IncuCyte live cell monitoring system (Essen BioScience, Ann Arbor, Mich.). Frames were captured at 2-hour intervals using a 10× objective. For Ran knock down experiments, cells were seeded in a 96-well plate (4,000 cells/well) directly after transfection. Cell confluence monitoring started the next day as described above.
# as §3
# Rac1-GTP = Rac1-GTP (Homo sapiens, UniProt P63000); assay: Rac1-GTP pull-down assay; assay type: cell-based; settings: 50 μM M36 (FIG. 7F)
# Ran-GTP [8] = target: T1, Ran-GTP; assay: Ran activation (Ran-GTP pull-down) assay in TOV112D cells; assay type: cell-based; settings: 1 hour treatment, vs DMSO
# Protocol: Cells were seeded onto 6-well tissue culture plates in such a way that cell confluence reaches approximately 70% the day of experiment. The day of experiment cells were treated for 1 hour with the indicated compounds prior to protein extraction and quantification. Assays were performed using the Ran activation assay kit (Cell Biolabs). Briefly, 400 μg of lysates were incubated for one hour at 4° C. with agarose beads conjugated to RANBP1, which specifically binds Ran-GTP. Beads were pelleted, washed, and re-suspended in SDS-PAGE buffer, followed by immunoblotting with an anti-Ran antibody.
# Sequence of Cdc42 (P60953 whole entry): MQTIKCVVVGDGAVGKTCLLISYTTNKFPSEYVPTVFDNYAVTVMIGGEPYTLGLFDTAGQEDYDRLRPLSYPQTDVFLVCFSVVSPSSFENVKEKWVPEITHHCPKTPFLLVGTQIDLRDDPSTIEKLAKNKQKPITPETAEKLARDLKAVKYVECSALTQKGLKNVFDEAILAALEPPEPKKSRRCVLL
# Sequence of RhoA (P61586 whole entry): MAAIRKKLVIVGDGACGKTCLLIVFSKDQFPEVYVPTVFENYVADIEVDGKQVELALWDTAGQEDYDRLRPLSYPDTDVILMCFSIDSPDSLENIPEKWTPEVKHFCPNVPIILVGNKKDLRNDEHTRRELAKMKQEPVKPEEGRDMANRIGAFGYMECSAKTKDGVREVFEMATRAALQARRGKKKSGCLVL
smiles,measurement,setting,value
NC(=S)[C@@H]1O[C@H](COCc2ccc(F)cc2)[C@@H](OCc2ccc(F)cc2)[C@H]1OCc1ccc(F)cc1 [M36],tolerance,[1],well tolerated
same,weight loss,[1],no weight loss
same,Ran-GTP levels by immunofluorescence,Ran-GTP [2],no detectable levels of Ran-GTP
same,activation of RhoA (RhoA-GTP levels),RhoA,does not inhibit the activation
same,HR pathway (RAD51/Geminin foci),RAD51/Geminin foci (HR),inhibiting the HR and NHEJ pathways
same,NHEJ pathway (53BP1 foci),53BP1; after gamma-irradiation,inhibiting the HR and NHEJ pathways
same,nuclear localization of 53BP1,53BP1; cytoplasmic staining,interferes with the nuclear localization of 53BP1
same,IC50,"TOV112D cells; Homo sapiens, TOV112D, read-out: IC50 value for the TOV112D cell line by clonogenic assay",10 ± 0.36 µM
same,colony formation of TOV112D cells,TOV112D cells; single dose 10 μM,inhibited colony formation of TOV112D cells
same,effect on prostate cancer cell lines,[3],also effective in prostate cancer cell lines
same,DNA damage (γH2AX foci),γH2AX foci; 48 hours or 72 hours treatment,increases DNA damage
same,DNA double-strand breaks repair (γH2AX foci clearance),γH2AX foci; after gamma-irradiation,delays DNA double-strand breaks repair
same,pharmacokinetics profile based on AUC values,[4]; 50 mg/kg,good pharmacokinetics profiles
same,absorption after intraperitoneal vs intravenous injection (plasma levels),[4]; 50 mg/kg single injection,less absorbed than compound QR20
same,persistence in the circulation,[4]; 50 mg/kg single injection,persists longer in the circulation
same,apoptosis (cleaved PARP on Western blot),cleaved PARP,induced cell apoptosis
same,inhibition of cell proliferation with DA Ran overexpression,[5],attenuated when DA Ran was overexpressed
same,binding to the immobilized Ran protein,[6],concentration-dependent binding
same,activation of Cdc42 (Cdc42-GTP levels),Cdc42,does not inhibit the activation
same,effect on normal ARPE-19 cell line in detailed clonogenic assay,ARPE-19 cells; different concentrations,almost no effect
same,colony formation of ARPE-19 cells,ARPE-19 cells; single dose 10 μM,without affecting the ARPE-19 cells
same,cell proliferation of other aneuploid EOC cells,[7],inhibited cell proliferation
same,Rac1-GTP levels (pull-down),Rac1-GTP,no decreased levels of Rac1-GTP
same,active Ran-GTP levels (pull-down),Ran-GTP [8],concentration-dependent decrease in Ran-GTP levels
